Test results: US5371102A, “Compositions and methods of inhibiting thyroid activity” (priority 1993, dated 1994)

Tests used:
peroxidase = assay: peroxidase/H2O2/I- triiodide formation with DMIT; assay type: biochemical; settings: H2O2 and I-, varying quantities of DMIT
Procedure: DMIT was synthesized according to the published method by Maier, Helv. Chim. Acta, Vol. 53, p. 1417 (1970). Varying quantities of DMIT were incubated with peroxidase, H2 O2 and I^-. Triiodide formation was observed spectrophotometrically as a function of time. […] An initial lag phase was dependent on the amount of thione used, followed by a rate increase to approximately the control rate.

LPX and TPX = assay: suicide inhibition of peroxidases (summary statements); assay type: biochemical
LPX [1] = target: T1, LPX (Bos taurus, UniProt P80025); assay: LPX iodide ion oxidation activity after incubation and dilution; assay type: biochemical, bovine; settings: LPX/hydrogen peroxide, absence of iodide ion
T1 construct: purchased Sigma Chemical Company
Source text: (§1) Materials used in the examples below were obtained from the following sources. Bovine LPX, bovine liver catalase, glucose oxidase, 30% hydrogen peroxide, glucose, guaiacol, ABTS and deuterium oxide were purchased from Sigma Chemical Company. Selenium dioxide, MBI ^13 CH3 I and PBA were purchased from Aldrich Chemical Company and PBA was purified as previously described by Fieset et al., Reagents for Organic Synthesis, Vol. I, pp.135-139, John Wiley and Sons, N.Y. (1967). LPX purity was checked by PAGE, as described by Doerge, D.R., et al. in, Biochem. Pharmacol., Vol.36, pp.972-974 (1986). TPX was purified from hog thyroids obtained from a local slaughterhouse by published procedures. Doerge & Takazowa, Chemical Research in Toxicology, Vol. 3, pp. 98-101 (1990). TPX purity was determined by LC and its concentration determined spectophotometrically. Hydroperoxide concentrations were determined by iodometric titration, as described by Kolthoff, et al., in "Quantitative Chemical Analysis", Macmillan, London, pp.842-860 (1969). MMBI, and BI were synthesized by published procedures as described by Doerge, D.R., Biochem, Vol. 27, pp. 3697-3700 (1988) and were recrystallized from aqueous ethanol. MeBI was purified by distillation and DMeBI^+ was synthesized and purified by recrystallization from ethyl acetate/methanol. 1-^13 C-MMBI was synthesized from ^13 CH3 I according to the procedure disclosed by Doerge, D.R., in, J. Lab. Comp. and Radiopharm., Vol.25, pp.985-990 (1988). PPHP and PPA were prepared, purified and analyzed as previously described by Doerge, Biochem, Vol.27, p.11 (1988). The methyl ester of 1-methyl-benzimidazole-2-sulfinic acid was prepared by addition of hydrogen peroxide (5 equivalents of a 10 M solution) to MMBI (0.1 M) in methanol. The products, MeBI and the ester, were obtained following preparative TLC on silica (Uniplate, Analtech Co., Newark, DL) using 5% methanol/chloroform as eluant.
The following experiment was performed to determine the effect of DMMBI oxidation on LPX activity. LPX (0.1 μM, final concentration) was incubated with hydrogen peroxide (100 μM), iodide ion (5 mM) and DMMBI (100 μM), as indicated in Table 2. After a 100 second incubation at 25° C., an aliquot was diluted 200-fold and the iodide ion oxidation activity determined. Values shown in Table 2, are averages +/- standard deviations (n=4) of the percentage relative to untreated LPX.

LPX [2] = target: T1, LPX; assay: LPX-catalyzed iodide ion oxidation (triiodide formation); assay type: biochemical, bovine; settings: LPX, H2O2, iodide ion
Source text: as §1, with “The products, MeBI and the ester, were obtained following preparative TLC on silica (Uniplate, Analtech Co., Newark, DL) using 5% methanol/chloroform as eluant.” left out
Inhibition of LPX activity by thiones was determined from the kinetics of iodide ion, guaiacol or ABTS oxidation assays conducted at 25° C. Kinetic parameters of suicide inactivation were determined as previously described. […]

## CN1CCN(C)C1=S [DMIT, 1,3-dimethylimidazolidine-2-thione]
peroxidase
  effect on triiodide formation: substantially the same as reported for DMMBI in Example 1 and Ac2 MBI in Example 2
LPX and TPX; alternate substrate mechanism
  selectivity for iodide ion oxidation: block only reactions involving iodide ion oxidation
LPX and TPX; summary of own examples
  suicide inhibition: not suicide inhibitors
LPX [1]
  loss of enzymatic activity: did not cause any loss of enzymatic activity
LPX [2]
  inhibition of iodide ion oxidation (triiodide formation): Identical results
